System: New Zealand rabbits with normal intraocular pressure
Assay: Intraocular pressure reduction, normal intraocular pressure, eye drops in both eyes for 14 days (Operation I)
Format: in vivo, New Zealand white rabbits
Conditions: for Change in intraocular pressure: vs negative control
Description: An intraocular pressure reduction effect and potential ocular toxicity of the compound of formula (I) were inspected with rabbits with normal intraocular pressure by repeated administration of eye drops for 14 days.
Male New Zealand white rabbits, aged 97 to 127 days, weighted 2.6-3.5 kg, purchased from Pizhou Oriental Breeding Co., Ltd.
The Male New Zealand white rabbits were randomly divided into 7 groups according to body weights, 6 rabbits/group. The animals in Groups 1 to 7 were administrated dropwise with a solvent/control/test article in both eyes in an administration volume of 50 μL/eye, once a day for 14 consecutive days, and the day of first administration was recorded as Day 1. The intraocular pressures of the animals were measured before administration, as well as at 1, 2, 4, 6, 8 and 10 h after administration, respectively. On Days 2 to 14, the intraocular pressures of animals in the K-115 administration group were measured at 1 h after daily administration; and intraocular pressures of the animals in the remaining groups were measured at 4 h after daily administration.

[1] = 0.5 mg/mL once a day, Day 2, 4 h after daily administration
[2] = 0.5 mg/mL once a day, Day 3, 4 h after daily administration
[3] = 0.5 mg/mL once a day, Day 4, 4 h after daily administration
[4] = 0.5 mg/mL once a day, Day 5, 4 h after daily administration
[5] = 0.5 mg/mL once a day, Day 6, 4 h after daily administration
[6] = 0.5 mg/mL once a day, Day 7, 4 h after daily administration
[7] = 0.5 mg/mL, Day 1, 1 h after administration
[8] = 0.5 mg/mL, Day 1, 2 h after administration
[9] = 0.5 mg/mL, Day 1, 4 h after administration
[10] = 0.5 mg/mL, Day 1, 6 h after administration
[11] = 0.5 mg/mL, Day 1, 8 h after administration
[12] = 0.5 mg/mL, Day 1, 10 h after administration
[13] = 0.5 mg/mL, Day 1, before administration
[14] = 1.0 mg/mL once a day, Day 2, 4 h after daily administration
[15] = 1.0 mg/mL once a day, Day 3, 4 h after daily administration
[16] = 1.0 mg/mL once a day, Day 4, 4 h after daily administration
[17] = 1.0 mg/mL once a day, Day 5, 4 h after daily administration
[18] = 1.0 mg/mL once a day, Day 6, 4 h after daily administration
[19] = 1.0 mg/mL once a day, Day 7, 4 h after daily administration
[20] = 1.0 mg/mL, Day 1, 1 h after administration
[21] = 1.0 mg/mL, Day 1, 2 h after administration
[22] = 1.0 mg/mL, Day 1, 4 h after administration
[23] = 1.0 mg/mL, Day 1, 6 h after administration
[24] = 1.0 mg/mL, Day 1, 8 h after administration
[25] = 1.0 mg/mL, Day 1, 10 h after administration
[26] = 1.0 mg/mL, Day 1, before administration
[27] = 2.0 mg/mL once a day, Day 2, 4 h after daily administration
[28] = 2.0 mg/mL once a day, Day 3, 4 h after daily administration
[29] = 2.0 mg/mL once a day, Day 4, 4 h after daily administration
[30] = 2.0 mg/mL once a day, Day 5, 4 h after daily administration
[31] = 2.0 mg/mL once a day, Day 6, 4 h after daily administration
[32] = 2.0 mg/mL once a day, Day 7, 4 h after daily administration

## Cc1ccc(C(=O)OCn2cc(C)c3c(S(=O)(=O)N4CC[C@H](N)C4)cccc3c2=O)c(C)c1 [Compound of formula (I)]
[1]
  Average intraocular pressure in both eyes: 7.94 mmHg
  Change in intraocular pressure: 3.14 mmHg
[2]
  Average intraocular pressure in both eyes: 7.31 mmHg
  Change in intraocular pressure: 3.08 mmHg
[3]
  Average intraocular pressure in both eyes: 7.78 mmHg
  Change in intraocular pressure: 2.83 mmHg
[4]
  Average intraocular pressure in both eyes: 7.19 mmHg
  Change in intraocular pressure: 3.78 mmHg
[5]
  Average intraocular pressure in both eyes: 6.61 mmHg
  Change in intraocular pressure: 2.7 mmHg
[6]
  Average intraocular pressure in both eyes: 6.00 mmHg
  Change in intraocular pressure: 4.06 mmHg
0.5 mg/mL once a day, Day 8, 4 h after daily administration
  Change in intraocular pressure: 4.2 mmHg
0.5 mg/mL once a day, Day 9, 4 h after daily administration
  Change in intraocular pressure: 3.25 mmHg
0.5 mg/mL once a day, Day 10, 4 h after daily administration
  Change in intraocular pressure: 3 mmHg
0.5 mg/mL once a day, Day 11, 4 h after daily administration
  Change in intraocular pressure: 3.25 mmHg
0.5 mg/mL once a day, Day 12, 4 h after daily administration
  Change in intraocular pressure: 3.28 mmHg
0.5 mg/mL once a day, Day 13, 4 h after daily administration
  Change in intraocular pressure: 3.31 mmHg
0.5 mg/mL once a day, Day 14, 4 h after daily administration
  Change in intraocular pressure: 3.72 mmHg
[7]
  Average intraocular pressure in both eyes: 8.83 mmHg
  Change in intraocular pressure: 1.48 mmHg
[8]
  Average intraocular pressure in both eyes: 7.56 mmHg
  Change in intraocular pressure: 3.41 mmHg
[9]
  Average intraocular pressure in both eyes: 7.11 mmHg
  Change in intraocular pressure: 4.2 mmHg
[10]
  Average intraocular pressure in both eyes: 9.61 mmHg
  Change in intraocular pressure: 2.33 mmHg
[11]
  Average intraocular pressure in both eyes: 9.06 mmHg
  Change in intraocular pressure: 3.91 mmHg
[12]
  Average intraocular pressure in both eyes: 9.97 mmHg
  Change in intraocular pressure: 4.45 mmHg
[13]
  Average intraocular pressure in both eyes: 10.11 mmHg
  Change in intraocular pressure: −0.22 mmHg
[14]
  Average intraocular pressure in both eyes: 7.64 mmHg
  Change in intraocular pressure: 3.44 mmHg
[15]
  Average intraocular pressure in both eyes: 7.50 mmHg
  Change in intraocular pressure: 2.89 mmHg
[16]
  Average intraocular pressure in both eyes: 7.33 mmHg
  Change in intraocular pressure: 3.28 mmHg
[17]
  Average intraocular pressure in both eyes: 7.44 mmHg
  Change in intraocular pressure: 3.53 mmHg
[18]
  Average intraocular pressure in both eyes: 6.92 mmHg
  Change in intraocular pressure: 2.39 mmHg
[19]
  Average intraocular pressure in both eyes: 7.00 mmHg
  Change in intraocular pressure: 3.06 mmHg
1.0 mg/mL once a day, Day 8, 4 h after daily administration
  Change in intraocular pressure: 4.03 mmHg
1.0 mg/mL once a day, Day 9, 4 h after daily administration
  Change in intraocular pressure: 2.5 mmHg
1.0 mg/mL once a day, Day 10, 4 h after daily administration
  Change in intraocular pressure: 2.44 mmHg
1.0 mg/mL once a day, Day 11, 4 h after daily administration
  Change in intraocular pressure: 2.19 mmHg
1.0 mg/mL once a day, Day 12, 4 h after daily administration
  Change in intraocular pressure: 2.64 mmHg
1.0 mg/mL once a day, Day 13, 4 h after daily administration
  Change in intraocular pressure: 3.33 mmHg
1.0 mg/mL once a day, Day 14, 4 h after daily administration
  Change in intraocular pressure: 3.53 mmHg
[20]
  Average intraocular pressure in both eyes: 7.08 mmHg
  Change in intraocular pressure: 3.23 mmHg
[21]
  Average intraocular pressure in both eyes: 6.67 mmHg
  Change in intraocular pressure: 4.3 mmHg
[22]
  Average intraocular pressure in both eyes: 6.44 mmHg
  Change in intraocular pressure: 4.87 mmHg
[23]
  Average intraocular pressure in both eyes: 8.00 mmHg
  Change in intraocular pressure: 3.94 mmHg
[24]
  Average intraocular pressure in both eyes: 9.22 mmHg
  Change in intraocular pressure: 3.75 mmHg
[25]
  Average intraocular pressure in both eyes: 10.56 mmHg
  Change in intraocular pressure: 3.86 mmHg
[26]
  Average intraocular pressure in both eyes: 9.94 mmHg
  Change in intraocular pressure: −0.05 mmHg
[27]
  Average intraocular pressure in both eyes: 7.03 mmHg
  Change in intraocular pressure: 4.05 mmHg
[28]
  Average intraocular pressure in both eyes: 7.25 mmHg
  Change in intraocular pressure: 3.14 mmHg
[29]
  Average intraocular pressure in both eyes: 6.86 mmHg
  Change in intraocular pressure: 3.75 mmHg
[30]
  Average intraocular pressure in both eyes: 6.47 mmHg
  Change in intraocular pressure: 4.5 mmHg
[31]
  Average intraocular pressure in both eyes: 5.92 mmHg
  Change in intraocular pressure: 3.39 mmHg
[32]
  Average intraocular pressure in both eyes: 5.78 mmHg
  Change in intraocular pressure: 4.28 mmHg
2.0 mg/mL once a day, Day 8, 4 h after daily administration
  Change in intraocular pressure: 4.53 mmHg
2.0 mg/mL once a day, Day 9, 4 h after daily administration
  Change in intraocular pressure: 3.72 mmHg
2.0 mg/mL once a day, Day 10, 4 h after daily administration
  Change in intraocular pressure: 3.81 mmHg
2.0 mg/mL once a day, Day 11, 4 h after daily administration
  Change in intraocular pressure: 3.66 mmHg
2.0 mg/mL once a day, Day 12, 4 h after daily administration
  Change in intraocular pressure: 3.5 mmHg
2.0 mg/mL once a day, Day 13, 4 h after daily administration
  Change in intraocular pressure: 4.28 mmHg

— patent US12624017B2, “Salt form of isoquinolinone type compound as rock inhibitor and preparation method therefor” (GUANGZHOU OCUSUN OPHTHALMIC BIOTECHNOLOGY CO., LTD., priority 2020, dated 2026)
